# Data reported in patent publication US5464617A, “β-lactam compounds” (Hoffmann-La Roche Inc., priority 1994, dated 1995).
# Counter-ions that a name gives are not always drawn.
# Tests used:
# [1] = system: Citrobacter freundii 1982; assay: MIC in vitro of a 1:4 combination of ceftriaxone with a compound of formula I (Test D); type: cell-based; conditions: for MIC C. freundii 1982 (D): test D
# Method: The minimum inhibitory concentration in vitro ([…]) of a 1:4 combination of ceftriaxone with a compound of formula I against Citrobacter freundii 1982 was measured and compiled in Table 2 hereinafter.
# [2] = system: E. coli 1346; assay: Antibacterial activity of the products per se, serial dilution method in liquid medium (Test E); type: cell-based; conditions: product per se; for MIC E. coli 1346 (E): test E
# Source text: The antibacterial activity of the products per se is illustrated on the basis of Table 3 hereinafter, the minimum inhibitory concentration […] in vitro against E. coli 1346 being determined using the serial dilution method in liquid medium: […]
# [3] = Table 4, 1:4 combination of ceftriaxone with the compound
"MIC C. freundii 1982 (D) [1, 3] [µg/mL]",MIC E. coli 1346 (E) ([2]; Table 4) [µg/mL],SMILES,other results
2,4,"O=C(NCC(F)(F)F)OCC1=C(C(=O)O)N2C(=O)[C@@H]3[C@H]2[C@H](C1)CN3C(=O)C(F)(F)F [92(b), (1aS,3aR,6bR)-1-Oxo-2-trifluoroacetyl-5-(2,2,2-trifluoroethylcarbamoyloxymethy)-1a,2,3,3a,4,6b-hexahydro-1H-2,6a-diazacyclobut[cd]indene-6-carboxylicacid sodium salt]",
0.5,> 32,"O=C(O)C1=C(CSc2ccncc2)C[C@@H]2CN(C(=O)Nc3ccc(O)cc3)[C@@H]3C(=O)N1[C@H]23 [18(j), (1aS,3aR,6bR)-2-(4-Hydroxy-phenylcarbamoyl)-1-oxo-5-(pyridin-4-ylsulphanylmethyl)-1a,2,3,3a,4,6b-hexahydro-1H-2,6a-diazacyclobut[cd]indene-6-carboxylic acid sodium salt]",
1,2,"CC(=O)N1C[C@H]2CC(CSc3nc[nH]n3)=C(C(=O)O)N3C(=O)[C@@H]1[C@@H]23 [76(a), (1aS,3aR,6bR)-2-Acetyl-1-oxo-5-(1H-1,2,4-triazol-3-ylsulphanylmethyl)-1a,2,3,3a,4,6b-hexahydro-1H-2,6a-diazacyclobut[cd]indene-6-carboxylic acid sodium salt]",
1,1,"O=C(Cn1nnnc1SCC1=C(C(=O)O)N2C(=O)[C@@H]3[C@H]2[C@H](C1)CN3C(=O)C(F)(F)F)Nc1ccc(O)cc1 [78(b), (1aS,3aR,6bR)-5-[1-(4-Hydroxy-phenylcarbamoylmethyl)-1H-tetrazol-5-ylsulphanylmethyl]-1-oxo-2-trifluoroacetyl-1a,2,3,3a,4,6b-hexahydro-1H-2,6a-diazacyclobut[cd]indene-6-carboxylic acid sodium salt]",
1,1,"CC(=O)N1C[C@H]2CC(COC(=O)NCc3ccncc3)=C(C(=O)O)N3C(=O)[C@@H]1[C@@H]23 [100(a), (1aS,3aR,6bR)-2-Acetyl-1-oxo-5-(pyridin-4-ylmethylcarbamoyloxymethyl)-1a,2,3,3a,4,6b-hexahydro-1H-2,6a-diazacyclobut[cd]indene-6-carboxylic acid sodium salt]",

# More lines, now with the values behind:
SMILES,"MIC C. freundii 1982 (D) [1, 3] [µg/mL]",MIC E. coli 1346 (E) ([2]; Table 4) [µg/mL],other results
"CN1CCN(C(=O)OCC2=C(C(=O)O)N3C(=O)[C@H]4NC[C@@H](C2)[C@H]43)CC1 [Example 103, (1aS,3aR,6bR)-5-(4-Methyl-piperazin-1-ylcarbonyloxymethyl)-1-oxo-1a,2,3,3a,4,6b-hexahydro-1H-2,6a-diazacydobut[cd]indene-6-carboxylic acid trifluoroacetate]",2,1,
"Cn1c(O)nnc1SCC1=C(C(=O)O)N2C(=O)[C@H]3NC[C@@H](S1)[C@H]32 [40(d), (1aS,3aR,6bS)-5-(5-Hydroxy-4-methyl-4H-[1,2,4]-triazol-3-ylsulphanylmethyl)-1-oxo-4-thia-1,1a,2,3,3a,6b-hexahydro-2,6a-diazacyclobut[cd]indene-6-carboxylic acid]",2,8,
"NC(=O)c1ccc(NC(=O)N2C[C@H]3CC(CSc4ccncc4)=C(C(=O)O)N4C(=O)[C@@H]2[C@@H]34)cc1 [18(e), (1aS,3aR,6bR)-2-(4-Carbamoyl-phenylcarbamoyl)-1-oxo-5-(pyridin-4-ylsulphanylmethyl)-1a,2,3,3a,4,6b-hexahydro-1H-2,6a-diazacyclobut[cd]indene-6-carboxylic acid]",,,"MIC C. freundii 1982 (D) ([1]; Table 5, particularly preferred products, 1:4 combination with ceftriaxone): 0.12 µg/mL; MIC E. coli 1346 (E) ([2]; Table 5, particularly preferred products): > 32 µg/mL"
"Cc1nnc(SCC2=C(C(=O)O)N3C(=O)[C@@H]4[C@H]3[C@@H](CN4C(=O)Nc3ccc(O)cc3)S2)s1 [41(c), (1aS,3aR,6bS)-2-(4-Hydroxy-phenylcarbamoyl)-5-(5-methyl-1,3,4-thiadiazol-2-ylsulphanylmethyl)-1-oxo-4-thia-1,1a,2,3,3a,6b-hexahydro-2,6a-diazacyclobut[cd]indene-6-carboxylic acid sodium salt]",1,> 32,
"NC(=O)Cn1nnnc1SCC1=C(C(=O)O)N2C(=O)[C@H]3NC[C@@H](O1)[C@H]32 [Example 29(j), (1aS,3aR,6bS)-5-(1-Carbamoylmethyl-1H-tetrazol-5-ylsulphanylmethyl)-1-oxo-1,1a,2,3,3a,6b-hexahydro-4-oxa-2,6a-diazacyclobut[cd]indene-6-carboxylic acid]",4,8,
"Cc1nnc(SC2=C(C(=O)O)N3C(=O)[C@H]4NC[C@@H](C2)[C@H]43)s1 [Example 2(b), (1aS,3aR,6bR)-5-(5-Methyl-1,3,4-thiadiazol-2-ylsulphanyl)-1-oxo-1a, 2,3,3a,4,6b-hexahydro-1H-2,6a-diazcyclobut[cd]indene-6-carboxylic acid trifluoroacetate]",,,"MIC C. freundii 1982 ([1]; Table 2, 1:4 combination of ceftriaxone with the compound): 1 µg/mL; MIC E. coli 1346 ([2]; Table 3, liquid medium): 4 µg/mL"
"[N-]=[N+]=NCC1=C(C(=O)O)N2C(=O)[C@@H]3[C@H]2[C@H](C1)CN3C(=O)C(F)(F)F [83(b), (1aS,3aR,6bR)-5-Azidomethyl-2-trifluoroacetyl-1-oxo-1a,2,3,3a,4,6b-hexahydro-1H-2,6a-diazacyclobut[cd]indene-6-carboxylic acid sodium salt]",0.5,0.5,
"CC(=O)N1C[C@H]2OC(CSc3cc(C)nc4nc(C(N)=O)nn34)=C(C(=O)O)N3C(=O)[C@@H]1[C@@H]23 [32(c), (1aS,3aR,6bS)-2-Acetyl-5-(2-carbamoyl-S-methyl[1,2,4]-triazolo[1,5-a]pyrimidin-7-ylsulphanylmethyl)-1-oxo-1,1a,2,3,3a,6b-hexahydro-4-oxa-2,6a-diazacyclobut[cd]indene-6-carboxylic acid sodium salt]",32,4,
"N#C/C=C/C1=C(C(=O)O)N2C(=O)[C@H]3NC[C@@H](C1)[C@H]32 [48(b), (E)-(1aS,3aR,6bR)-5-(2-Cyanovinyl)-1-oxo-1a,2,3,3a,4,6b-hexahydro-1H-2,6a-diazacyclobut[cd]indene-6-carboxylic acid trifluoroacetate]",2,4,
"C=CCN1C[C@H]2OC(CSc3nnnn3C)=C(C(=O)O)N3C(=O)[C@@H]1[C@@H]23 [Example 30, (1aS,3aR,6bS)-2-Allyl-5-(1-methyl-1H-tetrazol-5-ylsulphanylmethyl)-1-oxo-4-oxa-1,1a,2,3,3a,6b-hexahydro-2,6a-diazacyclobut[cd]indene-6-carboxylic acid sodium salt]",1,8,
"Cn1nc[n+](C)c1CSC1=C(C(=O)[O-])N2C(=O)[C@@H]3[C@H]2[C@H](C1)CN3C(=O)Nc1ccc(O)cc1 [3(q), (1aS,3aR,6bR)-5-[(1,4-Dimethyl-1H-1,2,4-triazol-5-ylio)methylsulphanyl]-2-(4-hydroxy-phenylcarbamoyl)-1-oxo-1a,2,3,3a,4,6b-hexahydro-1H-2,6a-diazacyclobut[cd]indene-6-carboxylate]",2,> 32,
